Laboratory results taken from US9957264B2 (Merck Sharp & Dohme Corp., priority 2013, dated 2018).

Columns and labels:
[1] = target: JAK1 (recombinant purified GST-tagged catalytic domain) (Homo sapiens (Human), UniProt P23458); experiment: Jak Biochemical HTRF Assay (JAK1); settings: [ATP] 31.8 μM
Procedure, shortened: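 Compounds in DMSO were pre-equilibrated with enzyme and biotinylated peptide, then ATP was added and the reaction proceeded 120 min at room temperature. EDTA-based stop buffer with detection reagents was added, and after 60 min the time-resolved FRET ratio was read. IC50s came from 4-parameter dose–response fits.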

[2] = target: JAK2 (recombinant purified GST-tagged catalytic domain) (Homo sapiens (Human), UniProt O60674); experiment: Jak Biochemical HTRF Assay (JAK2); settings: [ATP] 8.5 μM
JAK2 (recombinant purified GST-tagged catalytic domain), sequence (O60674 849-1124): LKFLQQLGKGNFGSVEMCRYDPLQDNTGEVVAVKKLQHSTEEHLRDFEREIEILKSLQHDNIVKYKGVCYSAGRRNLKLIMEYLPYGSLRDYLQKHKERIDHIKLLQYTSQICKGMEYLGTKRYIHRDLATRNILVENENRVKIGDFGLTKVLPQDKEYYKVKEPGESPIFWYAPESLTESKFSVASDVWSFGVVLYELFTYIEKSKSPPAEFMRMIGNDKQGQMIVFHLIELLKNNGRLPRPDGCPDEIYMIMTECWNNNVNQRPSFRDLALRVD

JAK1 (recombinant purified GST-tagged catalytic domain), sequence (P23458 875-1153): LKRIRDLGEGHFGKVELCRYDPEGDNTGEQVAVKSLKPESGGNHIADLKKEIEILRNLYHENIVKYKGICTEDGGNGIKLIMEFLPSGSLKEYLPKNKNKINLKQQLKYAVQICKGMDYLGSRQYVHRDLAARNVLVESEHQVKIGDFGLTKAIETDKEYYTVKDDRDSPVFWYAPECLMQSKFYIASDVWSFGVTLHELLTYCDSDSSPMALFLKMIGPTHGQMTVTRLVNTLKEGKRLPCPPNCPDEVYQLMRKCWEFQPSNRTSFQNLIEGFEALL

IC50 [1] | IC50 [2] | SMILES
0.22 nM | 0.15 nM | CC(c1ccc(Nc2nn([C@]3(CC#N)CC[C@@H](C(=O)OC(C)(C)C)OC3)c3cc[nH]c(=O)c23)cc1)N1CCCC1 (single isomer, unassigned) [Example 5-212, (2S,5S)-tert-butyl 5-(cyanomethyl)-5-(4-oxo-3-((4-((S or R)-1-(pyrrolidin-1-yl)ethyl)phenyl)amino)-4,5-dihydro-1H-pyrazolo [4,3-c]pyridin-1-yl) tetrahydro-2H-pyran-2-carboxylate]
0.19 nM | 0.58 nM | N#CC[C@@]1(n2nc(Nc3ccc(C(N)C(F)(F)F)cc3)c3c(=O)[nH]ccc32)CCCOC1 (single isomer, unassigned) [Example 5-187, {(3S)-3-[3-({4-[(1R or 1S)-1-amino-2,2,2-trifluoroethyl]phenyl}amino)-4-oxo-4,5-dihydro-1H-pyrazolo[4,3-c]pyridin-1-yl]tetrahydro-2H-pyran-3-yl}acetonitrile]
0.06 nM | 0.06 nM | CCNC(c1ccc(Nc2nn([C@@]3(CC#N)CCCC[C@H]3F)c3cc[nH]c(=O)c23)cc1)C(F)(F)F (single isomer, unassigned) [Example 5-174, {(1R,2R)-1-[3-({4-[(1R or 1S)-1-(ethylamino)-2,2,2-trifluoroethyl]phenyl}amino)-4-oxo-4,5-dihydro-1H-pyrazolo [4,3-c]pyridin-1-yl]-2-fluorocyclohexyl} acetonitrile]

More lines, now with the values behind:

SMILES | IC50 [1] | IC50 [2]
N#CC[C@]1(n2nc(Nc3ccc(Cl)cc3)c3c(=O)[nH]ccc32)CC[C@@H](N2CC(F)C2)CC1 [Example 18-7, Cis 2-(1-(3-((4-chlorophenyl)amino)-4-oxo-4,5-dihydro-1H-pyrazolo[4,3-c]pyridin-1-yl)-4-(3-fluoroazetidin-1-yl)cyclohexyl)acetonitrile] | 2.98 nM | 19.8 nM
CC(C)(C)N1Cc2cc(Nc3nn([C@@]4(CC#N)CCOC4)c4cc[nH]c(=O)c34)ccc2S1(=O)=O (single isomer, unassigned) [Example 5-247, (S or R)-2-(3-(3-((2-(tert-butyl)-1,1-dioxido-2,3-dihydrobenzo[d]isothiazol-5-yl)amino)-4-oxo-4,5-dihydro-1H-pyrazolo[4,3-c]pyridin-1-yl)tetrahydrofuran-3-yl)acetonitrile] | 0.11 nM | 2.24 nM
N#CC[C@]1(n2nc(Nc3cc(F)c4nccc(Cl)c4c3)c3c(=O)[nH]ccc32)CCOC1 (single isomer, unassigned) [Example 5-244, [(3S or 3R)-3-{3-[(4-chloro-8-fluoroquinolin-6-yl)amino]-4-oxo-4,5-dihydro-1H-pyrazolo[4,3-c]pyridin-1-yl}tetrahydrofuran-3-yl]acetonitrile] | 23 nM | 348 nM
CC(C)(C)OC(=O)N1CCC(CC#N)(n2nc(Nc3ccc(S(=O)(=O)NC4CCCCC4)cc3)c3c(=O)[nH]ccc32)CC1 [Example 5-292, tert-butyl 4-(cyanomethyl)-4-(3-((4-(N-cyclohexylsulfamoyl)phenyl)amino)-4-oxo-4,5-dihydro-1H-pyrazolo[4,3-c]pyridin-1-yl)piperidine-1-carboxylate] | 1.2 nM | 1.92 nM
CNc1nn(C2(CC#N)CCN(C(=O)OC(C)(C)C)CC2)c2cc[nH]c(=O)c12 [Example 2-5, tert-butyl 4-(cyanomethyl)-4-[3-(methylamino)-4-oxo-4,5-dihydro-1H-pyrazolo [4,3-c]pyridin-1-yl] piperidine-1-carboxylate] | 20.3 nM | 490 nM
CN(C)S(=O)(=O)c1ccc(Nc2nn([C@]3(CC#N)CC[C@@H](C(=O)OC(C)(C)C)OC3)c3cc[nH]c(=O)c23)cc1 [Example 5-43, (2S,5S)-tert-butyl 5-(cyanomethyl)-5-(3-((4-(N,N-dimethylsulfamoyl)phenyl)amino)-4-oxo-4,5-dihydro-1H-pyrazolo[4,3-c]pyridin-1-yl)tetrahydro-2H-pyran-2-carboxylate] | 0.07 nM | 0.14 nM
